{
  "source": "patent US20250186405A1",
  "about": "“Compound For Use In Treating Narcolepsy” (Alkermes, Inc., priority 2023, published 2025)",
  "test": "Oral PK of micronized Compound A, powder-in-capsule vs tablet, two particle sizes",
  "type": "in vivo, male Beagle dogs",
  "settings": "male, Beagle, dog, plasma",
  "method": "A non-GLP study was conducted in male Beagle dogs to compare the Compound A plasma exposure of powder-in-capsule (PIC) versus tablet formulation after the administration of single oral doses of micronized Compound A. Two different particle sizes were tested with the following objectives: • 1. To compare the oral plasma exposure of micronized Compound A (12 micron Dv90 particle size) after the administration of 20 mg of Compound A powder-in-capsule vs 20 mg of Compound A in four tablets of 5 mg each. • 2. To compare the oral plasma exposure of 12 micron and 32 micron Dv90 particle size of 20 mg micronized Compound A administered in four tablets of 5 mg each. • 3. To evaluate the dose-linearity of Compound A by comparing the oral plasma exposure of Compound A following the oral administration of 5 mg (one tablet) versus 20 mg (four tablets) of Compound A.\nThe pharmacokinetic analysis of concentrations and concentration-time data are summarized in tabular form, below, using descriptive statistics. Concentration data were summarized according to nominal sampling times. Plasma concentrations below the lower limit of assay quantification (BLOQ) were not included in the computation of mean concentration values. Pharmacokinetic parameters for individual animals were estimated using the non-compartmental analysis (NCA) using Dotmatics Studies tool.\nThe absolute extravascular bioavailability (F %) were calculated using the following formula: F %= [(AUC0-∞(extravascular)×Dose(intravenous(IV)))/(AUC0-∞(intravenous(IV))×Dose(extravascular))]×100 Where the “extravascular” represents any of subcutaneous (SC), intraperitoneal (IP) or oral (PO) route of administration.\nThe F % is calculated for each subject in case the same animals were administered with both intravenous and extravascular dose, then the average is reported with the standard error; otherwise, F % is calculated using the mean values without reporting a standard deviation in case the subjects of intravenous and extravascular profiles are different. Pharmacokinetic parameters were summarized by dosing group, route of administration, formulation, etc. using descriptive statistics.",
  "note": "Where two headings read alike, the source gives them in different places.",
  "data": [
    {"molecule": "CS(=O)(=O)N[C@H]1CCCN2C(=O)COc3ccccc3C3CCC(CC3)OCC12", "note": "(stereo partly drawn) [Compound A, N-[(4S,4aR,7α,10α)-1,2,3,4,4a,5,7,8,9,10,16,17-dodecahydro-17-oxo-7,10-ethanopyrido[1,2-d][1,7,4]benzodioxaazacyclotridecin-4-yl]methanesulfonamide]", "values": [
      {"measurement": "bioavailability", "setting": "5 mg, one 5 mg tablet, 12 micron Dv90, read-out: Oral bioavailability (F %)", "result": 55, "unit": "%"},
      {"measurement": "bioavailability", "setting": "20 mg, 20 mg PIC and 4 tablets of 5 mg, 12 and 32 micron Dv90, read-out: F % (absolute oral bioavailability), range", "result": "26 to 29", "unit": "%"},
      {"measurement": "bioavailability", "setting": "20 mg, four 5 mg tablets (20 mg), 12 micron Dv90, read-out: Oral bioavailability (F %)", "result": 29, "unit": "%"},
      {"measurement": "Tmax", "setting": "20 mg PIC and 4 tablets of 5 mg, 12 and 32 micron Dv90", "result": "~3", "unit": "h"},
      {"measurement": "AUC(0-inf)", "setting": "20 mg PIC and 4 tablets of 5 mg, 12 and 32 micron Dv90, read-out: AUC0-∞, range", "result": "1570 to 1730", "unit": "ng·h/mL"},
      {"measurement": "Cmax", "setting": "20 mg PIC and 4 tablets of 5 mg, 12 and 32 micron Dv90, read-out: Cmax, range", "result": "230 to 270", "unit": "ng/mL"},
      {"measurement": "half-life", "setting": "20 mg PIC and 4 tablets of 5 mg, 12 and 32 micron Dv90, read-out: terminal t1/2 (converted)", "result": "~3", "unit": "h"}
    ]}
  ]
}
